Values after ≈ are worked out from the molar mass of the structure shown. Values joined by “and” are separate entries in the source; they are usually repeats but may differ in a detail not shown here. Equal entries are not always repeated.
Tests used:
Trypanosoma cruzi = assay: DNDI: Inhibition of Chagas Disease parasite Trypanosoma cruzi (Tulahuen LacZ, Clone C4), in vitro.; format: functional, organism-based
[1] = (§1) DNDI: Cytotoxicity against L929 mouse fibroblasts, CYTO-SP, 24 hour; format: toxicity, cell-based; settings: mouse, L929 mouse fibroblasts
[2] = DNDI: Cytotoxicity against L-6 rat myoblasts from skeletal muscle cells; format: toxicity, cell-based, L6; settings: L-6 rat skeletal muscle myoblasts
[3] = (§2) DNDI: Cytotoxicity against L929 mouse fibroblasts, 72 hour.; format: toxicity, cell-based; settings: mouse, L929 mouse fibroblasts
Trypanosoma brucei [4] = assay: DNDI: Inhibition of Human African Trypanosomiasis, Cross 22, in vitro; format: functional, organism-based
Trypanosoma brucei [5] = assay: DNDI: Inhibition of Human African Trypanosomiasis, SBRI 427, in vitro; format: functional, organism-based
[6] = test system: Trypanosoma brucei rhodesiense; assay: DNDI: Inhibition of Human African Trypanosomiasis (HAT), STIB 900, in vitro; format: functional, organism-based
Trypanosoma brucei [7] = assay: DNDI: Mean survival time in days (MSD) of mice after intraperitoneal injection of Human African Trypanosomiasis (HAT), EATRO 110, in vivo at 20 mg/kg/day for 4 days.; format: functional, Mus musculus
Trypanosoma brucei [8] = assay: DNDI: Mean survival time in days (MSD) of mice after intraperitoneal injection of Human African Trypanosomiasis (HAT), EATRO 110, in vivo at 5 mg/kg/day for 4 days.; format: functional, Mus musculus
Leishmania donovani = assay: DNDI: Inhibition of formation of Leishmania donovani (strain MHOM/ET/67/L82) axenic amastigotes, in vitro.; format: functional, organism-based
[9] = DNDI: Lipophilicity measured in Chromatographic hydrophobicity index (CHI) assay, pH 7.4; format: physicochemical; settings: buffer
Plasmodium falciparum = assay: DNDI: Inhibition of the malaria parasite Plasmodium falciparum, in vitro; format: functional, organism-based; settings: K1
[10] = DNDI: Solubility in phosphate buffered saline at pH7.4 measured by nephelometry at room temperature (NEPH-RT); format: physicochemical; settings: pH 7.4
in vitro [11] = settings: human, microsomes, t (1 / 2)
Description: DNDI: half life in human liver microsomes at a concentration of 1uM

in vitro [12] = settings: human, microsomes, CLint in vitro
Description: DNDI: in vitro intrinsic clearance in human liver microsomes at a concentration of 1uM

L929 [13] = assay: as §1; format: toxicity, cell-based; settings: l929
Trypanosoma brucei [14] = assay: DNDI: Inhibition of Human African Trypanosomiasis, EATRO 110, in vitro; format: functional, organism-based
[15] = mouse, microsomes, 1 µM
Description: DNDI: in vitro intrinsic clearance in mouse liver microsomes at a concentration of 1uM

in vitro [16] = settings: mouse, t (1 / 2)
Description: DNDI: half life in mouse liver microsomes at a concentration of 1uM

[17] = DNDI: in vitro intrinsic clearance in mouse liver microsomes at a concentration of 10uM; format: ADME, Microsome; settings: read-out: CLint in vitro
[18] = DNDI: half life in mouse liver microsomes at a concentration of 10uM; format: ADME, Microsome
MDR1 (ABCB1) [19] = target: T1, MDR1 (ABCB1) (Homo sapiens, UniProt P08183); assay: DNDI: % of compound recovered from apical to basolateral permeability assay in MDCK cells transfected with human MDR1; format: ADME, cell-based, Canis lupus familiaris; settings: dog
T1 sequence (P08183 whole entry): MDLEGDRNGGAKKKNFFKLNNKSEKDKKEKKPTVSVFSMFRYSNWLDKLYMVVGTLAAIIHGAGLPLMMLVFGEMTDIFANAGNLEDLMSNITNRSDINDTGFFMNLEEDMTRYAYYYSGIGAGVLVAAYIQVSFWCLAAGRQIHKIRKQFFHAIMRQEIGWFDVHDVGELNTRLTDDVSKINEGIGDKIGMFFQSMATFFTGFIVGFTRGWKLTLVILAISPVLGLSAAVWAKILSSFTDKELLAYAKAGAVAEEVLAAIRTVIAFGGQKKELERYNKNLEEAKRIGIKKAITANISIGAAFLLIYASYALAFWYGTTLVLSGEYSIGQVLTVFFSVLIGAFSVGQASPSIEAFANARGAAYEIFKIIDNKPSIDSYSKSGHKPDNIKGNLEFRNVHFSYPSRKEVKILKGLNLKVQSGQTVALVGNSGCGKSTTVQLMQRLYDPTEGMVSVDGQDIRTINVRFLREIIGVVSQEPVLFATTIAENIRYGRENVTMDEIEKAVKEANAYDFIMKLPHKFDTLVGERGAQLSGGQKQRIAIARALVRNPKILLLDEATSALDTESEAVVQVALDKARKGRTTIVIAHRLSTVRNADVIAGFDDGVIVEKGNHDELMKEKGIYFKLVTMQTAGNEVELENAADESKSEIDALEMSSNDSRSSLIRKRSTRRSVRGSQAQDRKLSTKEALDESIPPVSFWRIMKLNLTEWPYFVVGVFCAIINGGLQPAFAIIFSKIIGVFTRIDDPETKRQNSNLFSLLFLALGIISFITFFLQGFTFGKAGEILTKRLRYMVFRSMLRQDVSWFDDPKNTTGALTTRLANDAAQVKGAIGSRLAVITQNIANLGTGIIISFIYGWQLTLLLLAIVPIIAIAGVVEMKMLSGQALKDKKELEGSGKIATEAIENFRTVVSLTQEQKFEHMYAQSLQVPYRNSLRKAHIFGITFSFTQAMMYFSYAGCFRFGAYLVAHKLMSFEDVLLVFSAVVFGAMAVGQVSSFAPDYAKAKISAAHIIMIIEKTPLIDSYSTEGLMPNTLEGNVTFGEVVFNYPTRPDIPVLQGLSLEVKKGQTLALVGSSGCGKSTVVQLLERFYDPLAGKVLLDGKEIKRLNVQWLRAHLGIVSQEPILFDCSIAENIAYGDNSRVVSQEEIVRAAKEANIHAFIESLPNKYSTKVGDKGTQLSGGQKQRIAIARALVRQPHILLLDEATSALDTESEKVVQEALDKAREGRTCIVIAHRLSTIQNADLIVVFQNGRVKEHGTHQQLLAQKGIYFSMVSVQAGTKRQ

MDR1 (ABCB1) [20] = target: T1, MDR1 (ABCB1); assay: DNDI: Apparent permeability from apical to basolateral side of the MDCK cell transfected with human MDR1; format: ADME, cell-based, Canis lupus familiaris; settings: dog
MDR1 (ABCB1) [21] = target: T1, MDR1 (ABCB1); assay: DNDI: Apparent permeability from basolateral to apical side of the MDCK cell transfected with human MDR1 after 60 mins at a concentration of 3uM; format: ADME, cell-based, Canis lupus familiaris; settings: dog
MDR1 (ABCB1) [22] = target: T1, MDR1 (ABCB1); assay: DNDI: % of compound recovered from basolateral to apical permeability assay in MDCK cells transfected with human MDR1; format: ADME, cell-based, Canis lupus familiaris; settings: dog
MDR1 (ABCB1) [23] = target: T1, MDR1 (ABCB1); assay: DNDI: Efflux ratio for permeability from basolateral to apical side to apical to basolateral side of MDCK cells transfected with human MDR1; format: ADME, cell-based, Canis lupus familiaris; settings: dog, read-out: B-A/A-B
[24] = DNDI: Solubility in phosphate buffered saline at pH7.4 measured by optical density (turbidimetry) at room temperature (OD-RT); format: physicochemical; settings: pH 7.4
L929 [25] = assay: as §2; format: toxicity, cell-based; settings: l929
[26] = DNDI: half-life in mouse S9 microsomes at a concentration of 1uM; format: ADME, subcellular, Liver, S9 fraction
[27] = DNDI: half-life in mouse S9 microsomes at a concentration of 10uM; format: ADME, subcellular, Liver, S9 fraction
[28] = DNDI: half life in human liver microsomes at a concentration of 10uM; format: ADME, Microsome
[29] = DNDI: in vitro intrinsic clearance in human liver microsomes at a concentration of 10uM; format: ADME, Microsome
[30] = Trypanosoma brucei, SBRI 427, read-out: IC50

Row | SMILES | IC50 (Trypanosoma brucei [4]) | IC50 (Trypanosoma brucei [5]; [30]) | chromatographic logD [9] | CLint in vitro [15] | microsomal CLint at 10 µM [17] | half-life at 10 µM [18] | solubility kinetic [24] | IC50 at 24 h [1] | IC50 at 72 h [3] | IC50 (Trypanosoma brucei [5]) | solubility kinetic [10] | other results
1 | CCCCc1ccc(-c2nc(CNC3CCCCCC3)co2)cc1 | 0.4 µg/mL (≈ 1.23 µM) | 0.36 µg/mL (≈ 1.1 µM) | 5.49 | – | – | – | – | > 50 µg/mL | 1.23 µg/mL (≈ 3.77 µM) | 0.18 µg/mL and 0.33 µg/mL | 13 µM (≈ 4.24 µg/mL) | IC50 (Trypanosoma cruzi): 1.43 µg/mL (≈ 4.38 µM); IC50 [2]: 2.85 µg/mL (≈ 8.73 µM); IC50 [6]: 0.383 µg/mL (≈ 1.17 µM); MSD (Trypanosoma brucei [7]): 3.5 days; MSD (Trypanosoma brucei [8]): 4 days; IC50 (Leishmania donovani): 10.1 µg/mL (≈ 30.8 µM); IC50 (Plasmodium falciparum): 0.739 µg/mL (≈ 2.26 µM); half-life at 1 µM (in vitro [11]): 0.8 h; microsomal CLint at 1 µM (in vitro [12]): 18 µL/min/mg
2 | CCCCCC(C)NCc1coc(-c2ccccc2OCC)n1 (stereo not given) | – | – | – | – | – | – | – | 27 µg/mL (≈ 85.3 µM) | 7.79 µg/mL (≈ 24.6 µM) | – | – | IC50 (L929 [13]): 38.6 µg/mL (≈ 122 µM)
3 | Fc1ccc(-c2cc3nc(-c4ccccc4)cc(NC4CCNC4)n3n2)cc1 (stereo not given) | – | 0.583 µg/mL (≈ 1.56 µM) | – | – | – | – | – | – | 1.39 µg/mL (≈ 3.72 µM) | – | – | half-life at 1 µM [26]: 1.39 h; half-life at 10 µM [27]: 2.82 h
4 | O/N=C(\NCC1CC1)c1ccccc1-c1ccccc1 | – | 1.15 µg/mL (≈ 4.32 µM) | 4.04 | 93 µL/min/mg | 117 µL/min/mg | 0.417 h | > 200 µM | > 50 µg/mL | > 10 µg/mL | – | > 200 µM | IC50 (Trypanosoma cruzi): > 30 µg/mL; IC50 [2]: 72.3 µg/mL (≈ 271 µM); IC50 [6]: 8.1 µg/mL (≈ 30.4 µM); MSD (Trypanosoma brucei [7]): 1 days; MSD (Trypanosoma brucei [8]): 4 days; IC50 (Leishmania donovani): 32.3 µg/mL (≈ 121 µM); logD [9]: 3.96; IC50 (Plasmodium falciparum): 3.14 µg/mL (≈ 11.8 µM); half-life at 10 µM [28]: 10.6 h; CLint in vitro [29]: 5 µL/min/mg; half-life at 1 µM (in vitro [16]; microsomes): 0.15 h
5 | Fc1ccc(-c2cc3nc(-c4ccccc4)cc(N4CCNCC4)n3n2)cc1 | – | 0.422 µg/mL (≈ 1.13 µM) | 4.98 | – | – | – | – | – | 0.73 µg/mL (≈ 1.95 µM) | – | 3 µM (≈ 1.12 µg/mL) | half-life at 1 µM [26]: 1.28 h; half-life at 10 µM [27]: 3.68 h

The next lines start with results.

Row | IC50 (Trypanosoma brucei [4]) | IC50 (Trypanosoma brucei [5]; [30]) | chromatographic logD [9] | CLint in vitro [15] | microsomal CLint at 10 µM [17] | half-life at 10 µM [18] | solubility kinetic [24] | SMILES | IC50 at 24 h [1] | IC50 at 72 h [3] | IC50 (Trypanosoma brucei [5]) | solubility kinetic [10] | other results
6 | 0.79 µg/mL (≈ 2.31 µM) | 1.23 µg/mL (≈ 3.59 µM) | – | 50 µL/min/mg | – | – | – | CCOc1ccc(-c2nc(CNC3CC(C)CC(C)(C)C3)co2)cc1 (stereo not given) | 44.1 µg/mL (≈ 129 µM) | < 3.13 µg/mL | 0.79 µg/mL and 1.06 µg/mL and 1.41 µg/mL and 0.84 µg/mL | – | IC50 (L929 [13]): 29.3 µg/mL (≈ 85.6 µM); IC50 (Trypanosoma brucei [14]): 1.03 µg/mL (≈ 3.01 µM); half-life at 1 µM (in vitro [16]; liver microsomes): 0.283 h
7 | 1.57 µg/mL (≈ 4.43 µM) | 1.18 µg/mL (≈ 3.33 µM) | 5.5 | 86 µL/min/mg | 35 µL/min/mg | 1.35 h | 0.8 µM (≈ 0.284 µg/mL) | CCOc1ccc(-c2nc(CNC[C@@H]3CC[C@H]4C[C@@H]3C4(C)C)co2)cc1 | 45.2 µg/mL (≈ 128 µM) | 3.26 µg/mL (≈ 9.2 µM) | 1.47 µg/mL and 1.38 µg/mL | – | IC50 (Trypanosoma brucei [14]): 0.71 µg/mL (≈ 2 µM); recovery (MDR1 (ABCB1) [19]): 21%; Papp A→B (MDR1 (ABCB1) [20]): 8.16 ×10⁻⁶ cm/s; Papp B→A at 1 h, 3 µM (MDR1 (ABCB1) [21]): 6.74 ×10⁻⁶ cm/s; recovery (MDR1 (ABCB1) [22]): 42%; efflux ratio (MDR1 (ABCB1) [23]): 0.8; half-life at 1 µM (in vitro [16]; liver microsomes): 0.167 h
8 | – | 1.55 µg/mL (≈ 4.51 µM) | – | – | – | – | – | CCCCc1ccc(-c2nc(CNCC(C)(C)CN(C)C)co2)cc1 | – | 4.92 µg/mL (≈ 14.3 µM) | – | – | IC50 (L929 [25]): 2.73 µg/mL (≈ 7.95 µM)
9 | – | 1.07 µg/mL (≈ 3.24 µM) | 4.56 | 24 µL/min/mg | 36 µL/min/mg | 1.35 h | 12.5 µM (≈ 4.13 µg/mL) | CCCCCC(C)NCc1coc(-c2ccc(OC(C)C)cc2)n1 (stereo not given) | > 50 µg/mL | 2.58 µg/mL (≈ 7.81 µM) | – | – | IC50 (L929 [25]): 3.42 µg/mL (≈ 10.3 µM); half-life at 10 µM [28]: 1.3 h; CLint in vitro [29]: 37 µL/min/mg; half-life at 1 µM (in vitro [16]; microsomes): 0.583 h

Reference: ChEMBL document CHEMBL1857833, “Screening and optimization of specific chemical series against human African Trypanosomiasis (HAT)”
